Data on four molecules can be found in US20220324835A1 (Nurix Therapeutics, Inc., priority 2018, published 2022).

In assay [1] the target is T1, Cbl-b (Homo sapiens, UniProt Q13191). Briefly: Cbl-b inhibition assay (Cbl-b activity assay, FRET, Biological Example 1; 100 mM NaCl, 60 nM Src kinase). The assay is classed as biochemical. The settings on record: upper bound stated in text lists; read-out: IC50 values in the Cbl-b inhibition assay of Biological Example 1. In outline:
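FRET read-out: loss of signal marks inhibition. Mix = biotin-Avi-Cbl-b (N-term), Src kinase, UbcH5B-Ub(Bodipy-FL, irreversible conjugate), streptavidin-Tb, assay buffer.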

Assay [2] deals with T-cell. Briefly: IL-2 secretion from T-cells co-stimulated with anti-CD3 and anti-CD28 antibody (Biological Example 2). It is filed as cell-based, human. The settings on record: for IL-2 secretion, Anti-CD3/Anti-CD28 stimulation, fold change over baseline: baseline = anti-CD3/anti-CD28 stimulated cells without inhibitor; for fold induction at 0.3 µM / fold induction at 1 µM / fold induction at 4 µM: Homo sapiens, T-cell, read-out: IL-2 secretion Anti-CD3/Anti-CD28 stimulation; for fold induction at 0.3 µM: 0.3 μM Cbl-b inhibitor; for fold induction at 1 µM: 1 μM Cbl-b inhibitor; for fold induction at 4 µM: 4 μM Cbl-b inhibitor. In outline:
(§1)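 T-cells were stimulated with anti-CD3 antibody alone or with anti-CD28 antibody, in the presence or absence of Cbl-b inhibitor. IL-2 secretion or CD25 surface staining was measured, and values expressed as fold over the uninhibited baseline […].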

Assay [3] concerns T-cell. The experiment in a line: IL-2 secretion from T-cells stimulated with anti-CD3 antibody alone (Biological Example 2). The assay is classed as cell-based, human. The settings on record: for fold induction at 1 µM / fold induction at 8 µM: T-cell, read-out: IL-2 secretion Anti-CD3 stimulation; for fold induction at 1 µM: 1 μM Cbl-b inhibitor; for fold induction at 8 µM: 8 μM Cbl-b inhibitor.

Assay [4] has as its system T-cell. The experiment in a line: CD25 cell surface staining on T-cells co-stimulated with anti-CD3 and anti-CD28 antibody (Biological Example 2). It is filed as cell-based, human. The conditions noted are these: for CD25 staining, Anti-CD3/Anti-CD28 stimulation, fold change over baseline: baseline = anti-CD3/anti-CD28 stimulated cells without inhibitor; for fold induction at 0.3 µM / fold induction at 1 µM / fold induction at 4 µM: Homo sapiens, T-cell, read-out: CD25 staining Anti-CD3/Anti-CD28 stimulation; for fold induction at 0.3 µM: 0.3 μM Cbl-b inhibitor; for fold induction at 1 µM: 1 μM Cbl-b inhibitor; for fold induction at 4 µM: 4 μM Cbl-b inhibitor. The method, boiled down:
as §1

The test system of assay [5] is T-cell. Briefly: CD25 cell surface staining on T-cells stimulated with anti-CD3 antibody alone (Biological Example 2). It is filed as cell-based, human. The settings on record: for CD25 staining, Anti-CD3 stimulation, fold change over baseline: baseline = anti-CD3/anti-CD28 stimulated cells without inhibitor; for fold induction at 1 µM / fold induction at 8 µM: T-cell, read-out: CD25 staining Anti-CD3 stimulation; for fold induction at 1 µM: 1 μM Cbl-b inhibitor; for fold induction at 8 µM: 8 μM Cbl-b inhibitor.

In assay [6] the target is T1, Cbl-b. The experiment in a line: Cbl-b activity assay (Cbl-b inhibition assay), TR-FRET of Cbl-b interaction with UbcH5B-Ub. It is filed as biochemical. In outline:
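UbcH5B (C85K) conjugated to N-terminally Bodipy-Fluorescein-labeled ubiquitin served as the fluorescent partner. After compound preincubation, Src kinase (60 nM) with 1 mM ATP and 5 mM MgCl2 (final) was added for 1.5 h, followed by a further 1 h incubation. Some values were obtained with 50 mM NaCl and 30 nM Src.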
On the technique in general: Time-resolved FRET reads energy transfer from a long-lived donor to a nearby acceptor.

Where [7] appears, read: 0.3 μM compound, primary human total T-cells.
[8] abbreviates: 1 μM compound, primary human total T-cells.
Where [9] appears, read: 4 μM compound, primary human total T-cells.
[10] abbreviates: 8 μM compound, primary human total T-cells.
Setting [11] is: assay buffer with 100 mM NaCl, 60 nM Src kinase, read-out: Cbl-b activity IC50.
The mark [12] stands for this setting: fold change over baseline (anti-CD3/anti-CD28 stimulated T-cells without inhibitor).
Where [13] appears, read: Homo sapiens, fold change over baseline (anti-CD3/anti-CD28 stimulated T-cells without inhibitor).
[14] abbreviates: fold change over baseline, primary human total T-cells.
The mark [15] stands for this setting: * assay buffer containing 50 mM NaCl instead of 100 mM NaCl and 30 nM Src kinase instead of 60 nM, read-out: Cbl-b activity IC50 (μM)*.

T1 sequence (Q13191 36-427): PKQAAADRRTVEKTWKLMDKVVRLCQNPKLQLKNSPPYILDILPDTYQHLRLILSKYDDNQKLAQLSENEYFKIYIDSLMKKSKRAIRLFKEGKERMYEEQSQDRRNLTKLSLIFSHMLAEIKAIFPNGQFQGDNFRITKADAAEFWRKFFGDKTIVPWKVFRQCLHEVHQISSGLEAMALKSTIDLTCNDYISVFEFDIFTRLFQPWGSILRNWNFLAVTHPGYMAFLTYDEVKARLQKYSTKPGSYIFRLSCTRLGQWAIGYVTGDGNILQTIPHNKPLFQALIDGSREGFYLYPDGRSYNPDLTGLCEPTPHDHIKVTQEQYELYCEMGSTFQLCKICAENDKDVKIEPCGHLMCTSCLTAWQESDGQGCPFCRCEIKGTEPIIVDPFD

As to `Cn1cnnc1[C@@H](F)[C@](C)(F)c1cccc(N2Cc3c(cccc3C(F)(F)F)C2=O)c1` (stereo in doubt) [Compound 480, 2-(3-((1R,2R)-1,2-difluoro-1-(4-methyl-4H-1,2,4-triazol-3-yl)propan-2-yl)phenyl)-4-(trifluoromethyl)isoindolin-1-one], the figures for the IC50 in assay [1] and in assay [6] (setting [11]) were at most 300 nM and 0.1 to 0.3 µM, respectively. Also, the “IL-2 secretion, Anti-CD3/Anti-CD28 stimulation, fold change over baseline” value in assay [2] (setting [7]), in assay [2] (setting [8]) and in assay [2] (setting [9]) was “D (D indicates 1.01-2.50 fold)” each time. Also, the “IL-2 secretion, Anti-CD3 stimulation, fold change over baseline” value in assay [3] (setting [8]) was “E (E indicates ≤0.050 fold)”; in assay [3] (setting [10]), “D (D indicates 0.051-0.1 fold)”. Also, the “CD25 staining, Anti-CD3/Anti-CD28 stimulation, fold change over baseline” value in assay [4] (setting [7]), in assay [4] (setting [8]) and in assay [4] (setting [9]) was “D (D indicates 1.01-1.30 fold)” in each case. Further, the “CD25 staining, Anti-CD3 stimulation, fold change over baseline” value in assay [5] (setting [8]) is listed as “D (D indicates ≤0.600 fold)”; in assay [5] (setting [10]), “C (C indicates 0.601<0.800 fold)”.

In the case of `CC(c1cc(C(=O)Nc2cccc(C3(Cc4nncn4C)COC3)c2)nc(C2CC2)n1)N1CCC2(CC2)C1` (stereo in doubt) [Example 592a, (R)-6-(1-(5-azaspiro[2.4]heptan-5-yl)ethyl)-2-cyclopropyl-N-(3-(3-((4-methyl-4H-1,2,4-triazol-3-yl)methyl)oxetan-3-yl)phenyl)pyrimidine-4-carboxamide], the IC50 in assay [1] was at most 100 nM; in assay [6] (setting [11]), under 0.1 µM. The results for the fold induction at 0.3 µM in assay [2] (setting [12]) and in assay [4] (setting [12]) were 5 to 7.5 and 1.01 to 1.3, respectively. The fold induction at 1 µM in assay [2] (setting [12]) was over 7.5; in assay [3] (setting [13]), over 0.201; in assay [4] (setting [12]), 1.01 to 1.3; in assay [5] (setting [13]) it was over 1.

For the molecule `COc1cccc(C(=O)Nc2cccc([C@H](C)Sc3nncn3C)c2)n1` [Compound 38, (S)-6-Methoxy-N-(3-(1-((4-methyl-4H-1,2,4-triazol-3-yl)thio)ethyl)phenyl)picolinamide], the figures for the IC50 in assay [1], in assay [6] (setting [15]) and in assay [6] (setting [11]) were at most 1000 nM, 0.301 to 1 µM and 0.301 to 1 µM, respectively. In addition, the fold induction at 0.3 µM was 1.01 to 2.5 in assay [2] (setting [14]) and under 1 in assay [4] (setting [14]). Moreover, the fold induction at 1 µM is 1.01 to 2.5 in assay [2] (setting [14]), 0.101 to 0.15 in assay [3] (setting [14]), under 1 in assay [4] (setting [14]) and under 0.6 in assay [5] (setting [14]). Also, the fold induction at 4 µM in assay [2] (setting [14]) lay within 2.51 to 5; in assay [4] (setting [14]), 1.31 to 1.5. For the same molecule, the fold induction at 8 µM lay within 0.151 to 0.2 in assay [3] (setting [14]) and 0.601 to 0.8 in assay [5] (setting [14]).

As for `Cc1nc(C(=O)Nc2cccc([C@H](C)Sc3nncn3C)c2)ccc1Cl` [Compound 39, (S)-5-Chloro-6-methyl-N-(3-(1-((4-methyl-4H-1,2,4-triazol-3-yl)thio)ethyl)phenyl)picolinamide], the IC50 in assay [1] is at most 500 nM; in assay [6] (setting [15]) it was 0.301 to 1 µM; in assay [6] (setting [11]) it was 0.1 to 0.3 µM. Moreover, the fold induction at 0.3 µM in assay [2] (setting [14]) is 2.51 to 5; in assay [4] (setting [14]) it was under 1. Also, the fold induction at 1 µM in assay [2] (setting [14]) is 5 to 7.5; in assay [3] (setting [14]) it was under 0.05; in assay [4] (setting [14]), 1.01 to 1.3; in assay [5] (setting [14]), under 0.6. For the same molecule, the fold induction at 4 µM in assay [2] (setting [14]) was over 7.5; in assay [4] (setting [14]), 1.01 to 1.3. Besides, the fold induction at 8 µM in assay [3] (setting [14]) is 0.051 to 0.1; in assay [5] (setting [14]), 0.801 to 1.

A word on the IC50: it is the point on the concentration scale where inhibition reaches its midpoint.
